Measured values published in patent US11878965B2, “Inhibitors of peptidylarginine deiminases” (Gilead Sciences, Inc., priority 2020, dated 2024).

Molecular target: human PAD4 (Homo sapiens (Human), UniProt Q9UM07)
Experiment: In Vitro PAD4 BAEE Biochemical Assay
Settings: human PAD4, BAEE substrate; 5 nM PAD4, 2 mM calcium chloride, 3 mM BAEE; geometric mean of multiple experiments
How it was run: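 Recombinant human PAD4 (His-SUMO tag removed, E. coli-expressed), 5 nM, preincubated with compound and 2 mM CaCl2 30 min at 25 °C in MOPS pH 7.6 with DTT; 3 mM BAEE added for 2 h at 25 °C, EDTA stop. Released ammonia detected by o-phthalaldehyde/DTT fluorescence (ex 405, em 535 nm).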

Chain of human PAD4 (Q9UM07 2-663): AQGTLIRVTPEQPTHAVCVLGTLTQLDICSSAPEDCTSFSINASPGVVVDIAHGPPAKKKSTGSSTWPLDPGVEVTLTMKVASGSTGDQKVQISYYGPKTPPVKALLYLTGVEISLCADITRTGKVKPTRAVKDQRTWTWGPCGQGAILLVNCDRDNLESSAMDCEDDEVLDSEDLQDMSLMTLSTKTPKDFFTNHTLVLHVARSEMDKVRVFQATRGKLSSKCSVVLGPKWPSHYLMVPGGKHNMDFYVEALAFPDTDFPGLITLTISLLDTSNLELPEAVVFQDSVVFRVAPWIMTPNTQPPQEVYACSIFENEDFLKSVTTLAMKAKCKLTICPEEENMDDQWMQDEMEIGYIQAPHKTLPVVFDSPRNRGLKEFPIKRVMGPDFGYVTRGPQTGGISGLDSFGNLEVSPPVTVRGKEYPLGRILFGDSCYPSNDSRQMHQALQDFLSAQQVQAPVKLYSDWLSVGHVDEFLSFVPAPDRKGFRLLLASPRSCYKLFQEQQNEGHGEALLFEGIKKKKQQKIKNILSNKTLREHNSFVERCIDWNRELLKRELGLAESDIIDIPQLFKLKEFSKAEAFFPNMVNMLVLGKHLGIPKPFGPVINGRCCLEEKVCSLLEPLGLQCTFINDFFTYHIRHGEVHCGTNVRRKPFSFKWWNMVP

IC50 [nM] | Compound
49.3 | COc1cc(C(=O)N2CCC[C@@H](N)C2)cc2nc(-c3cc4ccc([C@@H](C)N5CCCC5=O)nc4n3CC3CC3)n(C3CC3)c12 [Example 244, 1-((R)-1-(2-(5-((R)-3-aminopiperidine-1-carbonyl)-1-cyclopropyl-7-methoxy-1H-benzo[d]imidazol-2-yl)-1-(cyclopropylmethyl)-1H-pyrrolo[2,3-b]pyridin-6-yl)ethyl)pyrrolidin-2-one]
227 | COc1cc(C(=O)N2C[C@H](N)CCN2C)cc2nc(-c3cc4ccc(C(C)(C)O)nc4n3CC3CC3)n(C)c12 [Example 249, (R)-(5-amino-2-methyltetrahydropyridazin-1(2H)-yl)(2-(1-(cyclopropylmethyl)-6-(2-hydroxypropan-2-yl)-1H-pyrrolo[2,3-b]pyridin-2-yl)-7-methoxy-1-methyl-1H-benzo[d]imidazol-5-yl)methanone]
874 | COc1cc(C(=O)N2C[C@H](N)CC[C@@H]2C)cc2nc(-c3cc4ccc(C(=O)N(C)C)nc4n3CC3CC3)n(C)c12 [Example 250, 2-(5-((2S,5R)-5-amino-2-methylpiperidine-1-carbonyl)-7-methoxy-1-methyl-1H-benzo[d]imidazol-2-yl)-1-(cyclopropylmethyl)-N,N-dimethyl-1H-pyrrolo[2,3-b]pyridine-6-carboxamide]
1720 | CNC(=O)c1ccc2cc(-c3nc4cc(C(=O)N5C[C@H](N)CC[C@@H]5C)cc(OC)c4n3C)n(CC3CC3)c2n1 [Example 251, 2-(5-((2S,5R)-5-amino-2-methylpiperidine-1-carbonyl)-7-methoxy-1-methyl-1H-benzo[d]imidazol-2-yl)-1-(cyclopropylmethyl)-N-methyl-1H-pyrrolo[2,3-b]pyridine-6-carboxamide]
1820 | COc1cc(C(=O)N2C[C@H](N)CC[C@@H]2C)cc2nc(-c3cc4ccc(C(=O)N(C)c5ccccc5)nc4n3CC3CC3)n(C)c12 [Example 252, 2-(5-((2S,5R)-5-amino-2-methylpiperidine-1-carbonyl)-7-methoxy-1-methyl-1H-benzo[d]imidazol-2-yl)-1-(cyclopropylmethyl)-N-methyl-N-phenyl-1H-pyrrolo[2,3-b]pyridine-6-carboxamide]
797 | COc1cc(C(=O)N2CCC[C@@H](N)C2)cc2nc(-c3cc4ccc(S(C)(=O)=O)nc4n3CC3CC3)n(C)c12 [Example 253, (R)-(3-aminopiperidin-1-yl)(2-(1-(cyclopropylmethyl)-6-(methylsulfonyl)-1H-pyrrolo[2,3-b]pyridin-2-yl)-7-methoxy-1-methyl-1H-benzo[d]imidazol-5-yl)methanone]
550 | COc1cc(C(=O)N2CCC[C@@H](N)C2)cc2nc(-c3cc4ccc(S(=O)(=O)C(C)C)nc4n3CC3CC3)n(C)c12 [Example 254, (R)-(3-aminopiperidin-1-yl)(2-(1-(cyclopropylmethyl)-6-(isopropylsulfonyl)-1H-pyrrolo[2,3-b]pyridin-2-yl)-7-methoxy-1-methyl-1H-benzo[d]imidazol-5-yl)methanone]
1330 | COc1cc(C(=O)N2C[C@H](N)CC[C@@H]2C)cc2nc(-c3cc4ccc(-c5cc6cn[nH]c6cc5C)nc4n3CC3CC3)n(C)c12 [Example 256, ((2S,5R)-5-amino-2-methylpiperidin-1-yl)(2-(1-(cyclopropylmethyl)-6-(6-methyl-1H-indazol-5-yl)-1H-pyrrolo[2,3-b]pyridin-2-yl)-7-methoxy-1-methyl-1H-benzo[d]imidazol-5-yl)methanone]
1360 | COc1cc(C(=O)N2C[C@H](N)CC[C@@H]2C)cc2nc(-c3cc4ccc(-c5ccc6[nH]ncc6c5C)nc4n3CC3CC3)n(C)c12 [Example 257, ((2S,5R)-5-amino-2-methylpiperidin-1-yl)(2-(1-(cyclopropylmethyl)-6-(4-methyl-1H-indazol-5-yl)-1H-pyrrolo[2,3-b]pyridin-2-yl)-7-methoxy-1-methyl-1H-benzo[d]imidazol-5-yl)methanone]
1830 | COc1cc(C(=O)N2C[C@H](N)CC[C@@H]2C)cc2nc(-c3cc4ccc(-c5cccc6c5NC(=O)C6)nc4n3CC3CC3)n(C)c12 [Example 259, 7-(2-(5-((2S,5R)-5-amino-2-methylpiperidine-1-carbonyl)-7-methoxy-1-methyl-1H-benzo[d]imidazol-2-yl)-1-(cyclopropylmethyl)-1H-pyrrolo[2,3-b]pyridin-6-yl)indolin-2-one]
364 | COc1cc(C(=O)N2C[C@H](N)CC[C@@H]2C)cc2nc(-c3cc4ccc(-c5ccc(N6CCC6)nc5C)nc4n3CC3CC3)n(C)c12 [Example 260, ((2S,5R)-5-amino-2-methylpiperidin-1-yl)(2-(6-(6-(azetidin-1-yl)-2-methylpyridin-3-yl)-1-(cyclopropylmethyl)-1H-pyrrolo[2,3-b]pyridin-2-yl)-7-methoxy-1-methyl-1H-benzo[d]imidazol-5-yl)methanone]
457 | COc1cc(C(=O)N2C[C@H](N)CC[C@@H]2C)cc2nc(-c3cc4ccc(-c5cccnc5N5CCOCC5)nc4n3CC3CC3)n(C)c12 [Example 261, ((2S,5R)-5-amino-2-methylpiperidin-1-yl)(2-(1-(cyclopropylmethyl)-6-(2-morpholinopyridin-3-yl)-1H-pyrrolo[2,3-b]pyridin-2-yl)-7-methoxy-1-methyl-1H-benzo[d]imidazol-5-yl)methanone]
584 | COc1cc(C(=O)N2C[C@H](N)CC[C@@H]2C)cc2nc(-c3cc4ccc(-c5cccc6c5CNC6=O)nc4n3CC3CC3)n(C)c12 [Example 262, 4-(2-(5-((2S,5R)-5-amino-2-methylpiperidine-1-carbonyl)-7-methoxy-1-methyl-1H-benzo[d]imidazol-2-yl)-1-(cyclopropylmethyl)-1H-pyrrolo[2,3-b]pyridin-6-yl)isoindolin-1-one]
687 | COc1cc(C(=O)N2C[C@H](N)CC[C@@H]2C)cc2nc(-c3cc4ccc(-c5cccnc5N5CCCC5)nc4n3CC3CC3)n(C)c12 [Example 263, ((2S,5R)-5-amino-2-methylpiperidin-1-yl)(2-(1-(cyclopropylmethyl)-6-(2-(pyrrolidin-1-yl)pyridin-3-yl)-1H-pyrrolo[2,3-b]pyridin-2-yl)-7-methoxy-1-methyl-1-benzo[d]imidazol-5-yl)methanone]
1870 | COc1cc(C(=O)N2C[C@H](N)CC[C@@H]2C)cc2nc(-c3cc4ccc(-c5cccnc5N5CCNCC5)nc4n3CC3CC3)n(C)c12 [Example 264, ((2S,5R)-5-amino-2-methylpiperidin-1-yl)(2-(1-(cyclopropylmethyl)-6-(2-(piperazin-1-yl)pyridin-3-yl)-1H-pyrrolo[2,3-b]pyridin-2-yl)-7-methoxy-1-methyl-1H-benzo[d]imidazol-5-yl)methanone]

Compound | IC50 [nM]
COc1cc(C(=O)N2[C@H]3CC[C@@H]2[C@H](N)C3)cc2nc(-c3cc4ccc([C@@H](C)NS(=O)(=O)c5ccc(F)cc5)nc4n3CC3CC3)n(C)c12 [Example 242, N-((R)-1-(2-(5-((1R,2R,4S)-2-amino-7-azabicyclo[2.2.1]heptane-7-carbonyl)-7-methoxy-1-methyl-1H-benzo[d]imidazol-2-yl)-1-(cyclopropylmethyl)-1H-pyrrolo[2,3-b]pyridin-6-yl)ethyl)-4-fluorobenzenesulfonamide] | 107
COc1cc(C(=O)N2[C@H]3CC[C@@H]2[C@H](N)C3)cc2nc(-c3cc4ccc([C@@H](C)NS(C)(=O)=O)nc4n3CC3CC3)n(C)c12 [Example 243, N-((R)-1-(2-(5-((1R,2R,4S)-2-amino-7-azabicyclo[2.2.1]heptane-7-carbonyl)-7-methoxy-1-methyl-1H-benzo[d]imidazol-2-yl)-1-(cyclopropylmethyl)-1H-pyrrolo[2,3-b]pyridin-6-yl)ethyl)methanesulfonamide] | 52.8
COc1cc(C(=O)N2[C@H]3CC[C@@H]2[C@H](N)C3)cc2nc(-c3cc4ccc([C@@H](C)N5CCCC5=O)nc4n3CC3CC3)n(C3CC3)c12 [Example 245] | 31.7
COc1cc(C(=O)N2[C@H]3CC[C@@H]2[C@H](N)C3)cc2nc(-c3cc4ccc([C@H]5CCCN5C(=O)C(C)(C)C)nc4n3CC3CC3)n(C)c12 [Example 246, 1-((R)-2-(2-(5-((1R,2R,4S)-2-amino-7-azabicyclo[2.2.1]heptane-7-carbonyl)-7-methoxy-1-methyl-1H-benzo[d]imidazol-2-yl)-1-(cyclopropylmethyl)-1H-pyrrolo[2,3-b]pyridin-6-yl)pyrrolidin-1-yl)-2,2-dimethylpropan-1-one] | 48.4
COc1cc(C(=O)N2[C@H]3CC[C@@H]2[C@H](N)C3)cc2nc(-c3cc4ccc([C@H]5CCCN5C(C)=O)nc4n3CC3CC3)n(C)c12 [Example 247, 1-((R)-2-(2-(5-((1R,2R,4S)-2-amino-7-azabicyclo[2.2.1]heptane-7-carbonyl)-7-methoxy-1-methyl-1H-benzo[d]imidazol-2-yl)-1-(cyclopropylmethyl)-1H-pyrrolo[2,3-b]pyridin-6-yl)pyrrolidin-1-yl)ethan-1-one] | 36.7
COc1cc(C(=O)N2[C@H]3CC[C@@H]2[C@H](N)C3)cc2nc(-c3cc4ccc([C@H]5CCCN5C(=O)N5CCCC5)nc4n3CC3CC3)n(C)c12 [Example 248, ((R)-2-(2-(5-((1R,2R,4S)-2-amino-7-azabicyclo[2.2.1]heptane-7-carbonyl)-7-methoxy-1-methyl-1H-benzo[d]imidazol-2-yl)-1-(cyclopropylmethyl)-1H-pyrrolo[2,3-b]pyridin-6-yl)pyrrolidin-1-yl)(pyrrolidin-1-yl)methanone] | 40.5
COc1cc(C(=O)N2[C@H]3CC[C@@H]2[C@H](N)C3)cc2nc(-c3cc4ccc(-n5c(C)cccc5=O)nc4n3CC3CC3)n(C)c12 [Example 255, 1-(2-(5-((1R,2R,4S)-2-amino-7-azabicyclo[2.2.1]heptane-7-carbonyl)-7-methoxy-1-methyl-1H-benzo[d]imidazol-2-yl)-1-(cyclopropylmethyl)-1H-pyrrolo[2,3-b]pyridin-6-yl)-6-methylpyridin-2(1H)-one] | 40.2
